Test results as given in patent US20040079671A1, “Medicinal product packaging” (priority 2002, published 2004).

Test: Accelerated stability at 56° C. of chlorobutanol and paraben test solution in untreated and fluorinated polypropylene bottles (HPLC concentration)
Type: physicochemical
Protocol: Polypropylene bottles (dropper-type) were obtained from Owens-Brockway, Ill. (capacity 5 ml). Some of the bottles were sent to a company called Fluoro-Seal (Columbus, Ohio) where they were treated for fluorine-coating under a proprietary method. After the bottles were ‘fluorosealed’ (done at ‘level 5’) they were washed in dilute soap solution rinsed several times in de-ionized water and dried before use. The bottles were then filled with 3 ml of a chlorobutanol and paraben test solution (Table 4). Control samples of untreated polypropylene bottles filled with the same solution were also prepared. All samples were prepared in duplicate and put up on accelerated stability at 56° C. Before putting on stability, ‘0’ time-point samples from all bottles were collected and the bottles were weighed. Concentration of cholorobutanol and methyl- and propyl parabens was determined by an HPLC method. Samples were taken at 1 wk, 2 wk and 4 wks by expelling ˜50-100 mcg droplets into tared vials. Bottles were weighed before and after sampling, before returning to condition. The following terms are used in Table 4, below. PP means polypropylene (untreated). PP-FL or PP-FL5 means fluorinated polypropylene at service provider's specified level of ‘5’. LDPE is low density polyethylene (untreated). LDPE-FL5 means low density polyethylene fluorinated at service provider's specified level of ‘5’. Duplicate samples were measured.

Conc. of propylparaben (bottle FL-5P P-2 (fluorinated polypropylene, level 5), time of storage 0 weeks): 102 µg/mL
Conc. of propylparaben (bottle FL-5P P-2 (fluorinated polypropylene, level 5), time of storage 1 week): 95.3 µg/mL
Conc. of propylparaben (bottle FL-5P P-2 (fluorinated polypropylene, level 5), time of storage 2 weeks): 96.6 µg/mL
Conc. of propylparaben (bottle FL-5P P-2 (fluorinated polypropylene, level 5), time of storage 4 weeks): 94.6 µg/mL
Conc. of propylparaben (bottle FL-5 PP-1 (fluorinated polypropylene, level 5), time of storage 0 weeks): 104 µg/mL
Conc. of propylparaben (bottle FL-5 PP-1 (fluorinated polypropylene, level 5), time of storage 1 week): 95.3 µg/mL
Conc. of propylparaben (bottle FL-5 PP-1 (fluorinated polypropylene, level 5), time of storage 2 weeks): 96.6 µg/mL
Conc. of propylparaben (bottle FL-5 PP-1 (fluorinated polypropylene, level 5), time of storage 4 weeks): 89.3 µg/mL
Conc. of propylparaben (bottle PP-1 (untreated polypropylene), time of storage 0 weeks): 103 µg/mL
Conc. of propylparaben (bottle PP-1 (untreated polypropylene), time of storage 1 week): 86.2 µg/mL
Conc. of propylparaben (bottle PP-1 (untreated polypropylene), time of storage 2 weeks): 82.5 µg/mL
Conc. of propylparaben (bottle PP-1 (untreated polypropylene), time of storage 4 weeks): 69.5 µg/mL
Conc. of propylparaben (bottle PP-2 (untreated polypropylene), time of storage 0 weeks): 103 µg/mL
Conc. of propylparaben (bottle PP-2 (untreated polypropylene), time of storage 1 week): 86.9 µg/mL
Conc. of propylparaben (bottle PP-2 (untreated polypropylene), time of storage 2 weeks): 77.8 µg/mL
Conc. of propylparaben (bottle PP-2 (untreated polypropylene), time of storage 4 weeks): 65.1 µg/mL
SMILES: CCCOC(=O)c1ccc(O)cc1 [PROPYLPARABEN, propylparaben]
